IC50, Activity and inhibition data for five compounds are collected here from ChEMBL document CHEMBL4706690, “Identification of BR102910 as a selective fibroblast activation protein (FAP) inhibitor” (Bioorg Med Chem Lett, 2021).

Experiment [1] concerns the target T1, Prolyl endopeptidase FAP (Homo sapiens, UniProt Q12884).
T1 sequence (Q12884 whole entry): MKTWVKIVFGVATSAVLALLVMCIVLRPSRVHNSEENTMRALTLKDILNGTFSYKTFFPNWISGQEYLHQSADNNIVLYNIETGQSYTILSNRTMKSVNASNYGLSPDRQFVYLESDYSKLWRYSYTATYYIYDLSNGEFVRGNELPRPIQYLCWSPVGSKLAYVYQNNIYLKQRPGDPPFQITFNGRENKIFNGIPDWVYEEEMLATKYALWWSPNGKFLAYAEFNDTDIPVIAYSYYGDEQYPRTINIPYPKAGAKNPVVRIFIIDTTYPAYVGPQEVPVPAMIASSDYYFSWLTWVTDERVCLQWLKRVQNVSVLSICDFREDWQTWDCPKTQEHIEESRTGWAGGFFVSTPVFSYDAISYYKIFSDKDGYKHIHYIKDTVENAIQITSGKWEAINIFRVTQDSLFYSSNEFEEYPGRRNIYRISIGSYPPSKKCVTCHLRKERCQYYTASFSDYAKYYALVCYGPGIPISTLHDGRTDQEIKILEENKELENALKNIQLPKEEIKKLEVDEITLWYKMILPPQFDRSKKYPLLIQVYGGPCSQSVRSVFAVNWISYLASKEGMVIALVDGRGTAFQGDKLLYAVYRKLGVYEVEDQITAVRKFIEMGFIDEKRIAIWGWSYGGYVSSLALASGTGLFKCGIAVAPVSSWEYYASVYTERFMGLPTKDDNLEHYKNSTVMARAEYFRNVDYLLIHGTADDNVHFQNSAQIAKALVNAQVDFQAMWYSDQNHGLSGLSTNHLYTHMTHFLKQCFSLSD
The experiment in a line: Inhibition of FAP (unknown origin) using AMC substrate by fluorometric assay.

Experiment [2] has as its system Mus musculus. The experiment in a line: Antidiabetic activity in ob/ob mouse assessed as reduction in plasma glucose level treated single oral dose of compound and recombinant human FGF21 intraperitoneally 60 mins prior to glucose challenge by OGTT. It is filed as functional, organism-based. As to conditions: dose 20-50 mg/kg.
The species entered for experiment [3] is Mus musculus. As to conditions: dose 20-50 mg/kg, time hrs <=9.
Experiment [4] deals with Dipeptidyl peptidase 4 (Homo sapiens, UniProt P27487). The experiment in a line: Inhibition of DPP4 (unknown origin) using AMC substrate by fluorometric assay.
Sequence of Dipeptidyl peptidase 4 (P27487 whole entry): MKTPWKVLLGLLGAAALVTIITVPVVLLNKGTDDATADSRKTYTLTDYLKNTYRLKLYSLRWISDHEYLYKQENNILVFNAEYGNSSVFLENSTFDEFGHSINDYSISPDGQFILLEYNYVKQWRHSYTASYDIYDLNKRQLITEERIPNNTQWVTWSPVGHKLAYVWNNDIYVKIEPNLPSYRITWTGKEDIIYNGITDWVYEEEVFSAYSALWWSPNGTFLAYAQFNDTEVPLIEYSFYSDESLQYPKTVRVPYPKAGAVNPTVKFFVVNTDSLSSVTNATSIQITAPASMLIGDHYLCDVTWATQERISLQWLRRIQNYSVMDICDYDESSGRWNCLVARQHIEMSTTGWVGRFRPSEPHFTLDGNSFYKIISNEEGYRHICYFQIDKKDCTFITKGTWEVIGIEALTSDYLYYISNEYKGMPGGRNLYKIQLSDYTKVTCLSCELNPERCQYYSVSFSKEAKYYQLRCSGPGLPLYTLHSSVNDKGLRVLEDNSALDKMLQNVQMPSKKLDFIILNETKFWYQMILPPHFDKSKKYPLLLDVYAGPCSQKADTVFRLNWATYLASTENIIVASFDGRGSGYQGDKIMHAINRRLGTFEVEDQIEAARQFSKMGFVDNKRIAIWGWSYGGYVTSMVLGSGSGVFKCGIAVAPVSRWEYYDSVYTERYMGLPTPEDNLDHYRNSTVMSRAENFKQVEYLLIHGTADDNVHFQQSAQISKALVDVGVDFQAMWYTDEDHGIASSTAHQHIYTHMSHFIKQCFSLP
The species entered for experiment [5] is Mus musculus. Conditions: C57BL/6J, dose 10-30 mg/kg, time hrs <=6.
The target of experiment [6] is Prolyl endopeptidase FAP (Homo sapiens) (UniProt Q12884). Put plainly: Inhibition of FAP (unknown origin) at 1 uM TR-FRET assay relative to control. (In general: In TR-FRET formats the signal depends on donor and acceptor labels being close together.)
For experiment [7], the target named is T2, Prolyl endopeptidase (Homo sapiens, UniProt P48147).
T2 sequence (P48147 whole entry): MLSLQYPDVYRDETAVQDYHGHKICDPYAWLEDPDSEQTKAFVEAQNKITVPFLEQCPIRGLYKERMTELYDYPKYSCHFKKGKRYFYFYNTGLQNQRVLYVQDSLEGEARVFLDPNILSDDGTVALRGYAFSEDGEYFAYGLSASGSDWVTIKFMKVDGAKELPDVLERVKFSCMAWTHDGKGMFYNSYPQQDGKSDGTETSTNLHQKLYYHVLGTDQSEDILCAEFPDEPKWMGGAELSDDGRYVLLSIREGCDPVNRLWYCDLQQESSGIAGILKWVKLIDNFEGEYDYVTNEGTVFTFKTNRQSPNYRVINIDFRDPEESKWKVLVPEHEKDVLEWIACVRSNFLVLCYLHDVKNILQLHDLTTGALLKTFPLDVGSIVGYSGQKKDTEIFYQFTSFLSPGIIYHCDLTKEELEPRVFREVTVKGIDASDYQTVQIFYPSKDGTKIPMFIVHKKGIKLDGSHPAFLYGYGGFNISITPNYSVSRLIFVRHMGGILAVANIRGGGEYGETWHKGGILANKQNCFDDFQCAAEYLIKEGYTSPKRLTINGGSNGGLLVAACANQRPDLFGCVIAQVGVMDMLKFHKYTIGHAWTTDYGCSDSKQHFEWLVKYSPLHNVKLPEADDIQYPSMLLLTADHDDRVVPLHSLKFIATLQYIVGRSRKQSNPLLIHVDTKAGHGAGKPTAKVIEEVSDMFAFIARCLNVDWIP
Description: Inhibition of PREP (unknown origin) using AMC substrate by fluorometric assay

Experiment [8] deals with Dipeptidyl peptidase 2 (Homo sapiens, UniProt Q9UHL4). Put plainly: Inhibition of DPP2 (unknown origin) using AMC substrate by fluorometric assay.

The term pIC50 denotes the negative decadic logarithm of the IC50, by convention in mol/L. Broadly, the inhibition is how much of the control response was suppressed.

pIC50: −log10 of the molar value. Activity calls are given as the source filed them. No cut-off for these calls is given here.

With `N#C[C@@H]1CC(F)(F)CN1C(=O)CNC(=O)c1csc(Cc2ccc(Cl)c(Cl)c2)n1`, the figures for the pIC50 in experiment [1] and in experiment [4] were 8.70 and less than 4.00, respectively. Moreover, in experiment [2], the Activity result was “Dose-dependent effect”. In addition, the inhibition entry in experiment [3] was “Active”. The values for the inhibition result in experiment [5] and in experiment [6] were “Dose-dependent effect” and 99%, respectively.

Regarding `N#Cc1ccc(Cc2nc(C(=O)NCC(=O)N3CC(F)(F)C[C@H]3C#N)cs2)cc1`, the values for the pIC50 in experiment [7] and in experiment [4] were 5.49 and less than 4.00, respectively. Also, the inhibition in experiment [6] was determined as 99.3%.

On to `N#C[C@@H]1CC(F)(F)CN1C(=O)CNC(=O)c1csc(-c2ccc(C(F)(F)F)cc2)n1`, for which the figures for the pIC50 in experiment [1], in experiment [7] and in experiment [4] were 7.11, 5.86 and less than 4.00, respectively. The same compound yielded an inhibition in experiment [6] of 99%.

For `C[C@@H](NC(=O)c1ccncc1)C(=O)N1CCC[C@H]1B(O)O`, the pIC50 in experiment [8] and in experiment [4] was less than 4.00 throughout.

Turning to `C[S+]([O-])c1ccc(Cc2nc(C(=O)NCC(=O)N3CC(F)(F)C[C@H]3C#N)cs2)cc1` (some centres undefined), the pIC50 is 6.41 in experiment [1], 5.92 in experiment [7] and 5.39 in experiment [4]. The inhibition in experiment [6] was determined as 95%.
